Data as given in patent US20250064789A1, “KETOAMIDE DERIVATIVES AND PHARMACEUTICAL USES THEREOF” (priority 2022, published 2025).
Where two headings read alike, the source gives them in different places.

Target: recombinant SARS-CoV-2 M^pro (Severe acute respiratory syndrome coronavirus 2 (2019-nCoV) (SARS-CoV-2), UniProt P0DTD1)
Assay: Inhibition of SARS-CoV-2 M^pro enzyme activity (fluorescent substrate assay)
Type: biochemical
Details: inhibition of SARS-CoV-2 M^pro enzyme activity, read-out: IC50

Compound	IC50 (values in nM) [nM]	IC50 (values given in μM) [nM]
O=C(NCc1cscn1)C(=O)[C@@H](Cc1ccccc1)NC(=O)[C@H]1COCCN1C(=O)C1CCC(F)(F)C1 (stereo partly drawn) [Compound 437]	61.1 ± 1.2	
O=C(NCc1ccccn1)C(=O)[C@@H](Cc1ccccc1)NC(=O)[C@H]1Cc2ccccc2CN1C(=O)[C@@H](NC(=O)c1cnccn1)C1CCCCC1 [Compound 271]	11.5 ± 0.1	
O=C(NC1(C(=O)N[C@H](Cc2ccccc2)C(=O)C(=O)NCc2ccccn2)CCC1)OCC1CCC(F)(F)CC1 [Compound 313, (4,4-difluorocyclohexyl)methyl(R)-(1-((3,4-dioxo-1-phenyl-4-((pyridin-2-ylmethyl)amino)butan-2-yl)carbamoyl)cyclobutyl) carbamate]	16 ± 2	
O=C(NCc1ccccn1)C(=O)[C@@H](Cc1ccccc1)NC(=O)C1(NC(=O)[C@@H]2C[C@@H]3[C@H](C2)C3(F)F)CC1 [Compound 161]	15.3 ± 1.6	
COC[C@@H](NC(=O)C1CCCC(F)(F)C1)C(=O)N[C@H](Cc1ccccc1)C(=O)C(=O)NCc1ncon1 (stereo partly drawn) [Compound 562]		> 2500
O=C(NCc1nccs1)C(=O)[C@@H](Cc1ccccc1)NC(=O)C1CC1C(=O)NC1CC(F)(F)C1 (stereo partly drawn) [Compound 555]	477.3 ± 4.1	
CNC(=O)C[C@@H](NC(=O)CC1CC(F)(F)C1)C(=O)N[C@H](Cc1ccccc1)C(=O)C(=O)NCc1nccs1 [Compound 575]	23.5 ± 0.9	
C[C@@H](NC(=O)C1CCC(F)(F)CC1)C(=O)N[C@H](Cc1ccccc1)C(=O)C(=O)NCc1cc(Cl)ccn1 [Compound 343]	18.3 ± 0.7	
O=C(NCc1ccccn1)C(=O)[C@@H](Cc1ccccc1)NC(=O)[C@H]1COCCN1C(=O)C1(F)CCCCC1 [Compound 294]	14.5 ± 0.2	
O=C(NCc1ccccn1)C(=O)[C@@H](Cc1ccccc1)NC(=O)C1(NC(=O)C2CCOCC2)CCC1 [Compound 191]	73 ± 4.5	
C[C@@H](NC(=O)c1ccccn1)C(=O)N[C@H](Cc1ccccc1)C(=O)C(=O)NCc1ccccn1 [Compound 141]		1160 ± 240
O=C(CNC(=O)C1CCC(F)(F)CC1)N[C@H](Cc1ccc(Cl)cc1Cl)C(=O)C(=O)NCc1ccccn1 [Compound 450]	45.4 ± 0.2	
O=C(NCc1ccccn1)C(=O)[C@@H](Cc1ccccc1)NC(=O)C1(OCc2ccc(Cl)cc2)CC1 [Compound 25]	24.9 ± 0.3	
C[C@@H](OCc1ccccc1F)C(=O)N[C@H](Cc1ccccc1)C(=O)C(=O)NCc1ccccn1 [Compound 6]	48.3 ± 1.2	
C[C@@H](NC(=O)[C@H]1CC[C@@H](F)CC1)C(=O)N[C@H](Cc1ccccc1)C(=O)C(=O)NCc1ccccn1 [Compound 127]	40.8 ± 0.6	
C[C@@H](NC(=O)[C@H]1CC[C@@H](NC(=O)OC(C)(C)C)CC1)C(=O)N[C@H](Cc1ccccc1)C(=O)C(=O)NCc1ccccn1 [Compound 133]	198 ± 9.6	
O=C(NCc1ccccn1)C(=O)[C@@H](Cc1ccccc1)NC(=O)[C@H]1CC(F)CN1C(=O)C1CCC(F)(F)CC1 (stereo partly drawn) [Compound 278]	33.7 ± 0.5	
C[C@@H](NC(=O)C1CCC(F)(F)CC1)C(=O)N[C@H](Cc1ccccc1)C(=O)C(=O)NCc1ccc(Cl)cn1 [Compound 120]	113.3 ± 1	
O=C(NCc1nccs1)C(=O)[C@@H](Cc1ccccc1)NC(=O)[C@H]1COCCN1C(=O)CC1CC1(F)F (stereo partly drawn) [Compound 413]	29.1 ± 2.5	
O=C(NCc1nccs1)C(=O)[C@@H](Cc1ccccc1)NC(=O)[C@H]1CC(F)(F)CN1C(=O)C1CCCC(F)(F)C1 (stereo partly drawn) [Compound 403]	20.4 ± 2.4	
CC(C)C[C@@H](NC(=O)C1CCC(F)(F)CC1)C(=O)N[C@H](Cc1ccccc1)C(=O)C(=O)NCc1ccccn1 [Compound 219]	13.4 ± 1.7	
C[C@@H](NC(=O)C1CCC(C(F)(F)F)CC1)C(=O)N[C@H](Cc1ccccc1)C(=O)C(=O)NCc1ccccn1 (stereo partly drawn) [Compound 110]	31.3 ± 0.1	
C[C@@H](NC(=O)c1ccc(Cl)cc1F)C(=O)N[C@H](Cc1ccccc1)C(=O)C(=O)NCc1ccccn1 [Compound 100]	13 ± 1.4	
O=C(NCc1ccccn1)C(=O)[C@@H](Cc1ccccc1)NC(=O)[C@@H]1[C@H]2CC[C@H](C2)N1C(=O)C1CCC(F)(F)CC1 [Compound 270]		> 2500
